Source: the METLIN SMRT retention time set (Domingo-Almenara et al. 2019)

Assay: gradient 5% acetonitrile 3 min, to 50% in 2 min, to 85% in 15 min, held 3 min, 100 µL/min
Settings: column: Zorbax Extend-C18 2.1 x 50 mm; eluents: water / acetonitrile, 0.1% formic acid
Outline: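 Standards, all pure, were combined into mixtures of ~100 molecules and run at 100 μL/min on a Zorbax Extend-C18 column (2.1 × 50 mm, 1.8 μm) with water and acetonitrile, each containing 0.1% formic acid. A coupled quadrupole time-of-flight mass spectrometer operated in positive and negative ionization mode. Retention time values come from computationally picked adduct peaks, each inspected manually.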

| RP-LC retention time | SMILES |
| --- | --- |
| 562 s | CN(C)c1ccc(CNC(=O)C2CCN(c3cnc4nccnc4c3)CC2)cc1 |
| 734 s | CCc1nnc([C@@H]2CC(F)(F)CN2C(=O)c2n[nH]c3ccccc23)o1 |
| 543 s | COCCO[C@H]1C(=O)N(C2CCN(S(C)(=O)=O)CC2)[C@H]1c1ccncc1 |
| 708 s | COc1cc(OC)c(NC(=O)Nc2c(-c3ccc(F)cc3)nc3ccccn23)cc1Cl |
| 586 s | CC1(C)Cc2cccc(OCc3ccc(C(=O)NCCN4CCOCC4)cc3)c2O1 |
| 934 s | COc1ccc(-c2noc(CN3C(=O)COc4ccc(C)cc43)n2)cc1OC |
| 801 s | COc1ccc(OC)c(CNC(=O)c2cccc3c2SCCC3=O)c1 |
| 1040 s | CCOc1ccc(-c2noc(C3CC(=O)N(c4cc(Cl)ccc4OC)C3)n2)cc1 (stereo not drawn) |
| 853 s | Cc1csc(NC(=O)CN2C(=O)C3CCCCN3c3ccc(S(=O)(=O)N(C)C)cc32)n1 (stereo not drawn) |
| 764 s | O=C(c1ccc(-c2cccnc2)nc1)N1CCN(c2ccccc2Cl)CC1 |
| 813 s | Cc1ccc(-c2coc3cc4oc(=O)c(CC(=O)N5CCC(C(N)=O)CC5)c(C)c4cc23)cc1 |
| 752 s | CC1CCN(C(=O)CN2C(=O)C3CCCCN3c3ccc(C(=O)N(C)C)cc32)CC1 (stereo not drawn) |
| 604 s | O=C(CN1CCCc2nc(C3CC3)ncc2C1=O)NC1CC1 |
| 911 s | O=c1ccc(N2CCCN(S(=O)(=O)c3ccc(F)c(Cl)c3)CC2)nn1-c1ccccc1 |
| 785 s | Cc1ccccc1S(=O)(=O)N1CCC(Cc2nc3cccnc3n2CC(C)C)C1 (stereo not drawn) |
| 617 s | COc1cc2c(cc1OC)C1C(C(=O)NCCCN3CCCCCC3)c3ccccc3C(=O)N1CC2 (stereo not drawn) |
| 654 s | CCOc1ccc(CN(CC)Cc2cc(=O)n3cc(Cl)ccc3n2)cc1 |
| 1030 s | O=C(Nc1nc(-c2ccccc2)cs1)Oc1ccccc1 |
| 1210 s | Cc1ccc(NC(=O)Cc2c(C)nn(-c3nc(-c4ccc(F)cc4)cs3)c2C)c(C)c1 |
| 891 s | COc1ccc(OCC2c3cc(OC)c(OC)cc3CCN2C(=O)CC(C)C)cc1 (stereo not drawn) |
| 940 s | CC(C)N1C(=O)c2cccnc2Sc2cc(NC(=O)Cc3cccc(Cl)c3)ccc21 |
| 853 s | O=C(Cn1nc2c(c1NC(=O)Cc1noc3ccccc13)CSC2)NCC1CCCO1 (stereo not drawn) |

| RP-LC retention time | SMILES |
| --- | --- |
| 738 s | CC(C)N(C(=O)Cn1c(CN2CCCCC2)nc2ccccc21)c1ccccc1 |
| 860 s | CC(C)NC(=O)c1ccc(OCC2CCN(C(=O)Cc3ccc(F)cc3)CC2)cc1 |
| 1110 s | Cc1ccc(-c2nnc(Cc3nc(-c4ccc(F)c(F)c4)no3)o2)cc1F |
| 979 s | CCS(=O)(=O)N1CC(=O)N(c2ccc(C)cc2)C(C)(C(=O)NC2CCCCCCC2)C1 (stereo not drawn) |
| 659 s | O=C(CSc1ccc(F)cc1)Nc1cccc2ccc(-n3ccnc3)nc12 |
| 821 s | O=c1n(Cc2c(F)cccc2Cl)nc2ccc(S(=O)(=O)N3CCOCC3)cn12 |
| 563 s | Cc1cc(C(=O)NCCN2CCN(C(=O)c3cccs3)CC2)c(C)o1 |
| 1120 s | Cc1ccc2c(c1)OCC(=O)N2Cc1nc(-c2ccccc2C)no1 |
| 759 s | O=c1ccc(S(=O)(=O)N2CCOCC2)cn1Cc1ccc(F)cc1 |
| 1230 s | CCOC(=O)c1cnc2c(-c3ccc(Br)cc3)c(C)nn2c1N |
| 785 s | CCOc1ccc(CNC(=O)CCc2nnc3c4cc(-c5ccccc5)nn4ccn23)cc1 |
| 529 s | Cc1cc(C(=O)N[C@@H]2CN(c3ncccn3)C[C@H]2CO)ccn1 |
| 770 s | CCC(C)NC(=O)c1cc(C)nc2ccc(Cl)cc12 (stereo not drawn) |
| 1070 s | COc1ccc(Cl)cc1C(=O)Nc1cnc(N2CCCCC2)nc1 |
| 1010 s | Cn1c(=O)c(N2CCC(NC(=O)Nc3cccc(C(F)(F)F)c3)CC2)nc2ccccc21 |
| 957 s | COc1ccc(OC)c(CNC(=O)C2CCCN(c3nccnc3Oc3ccccc3)C2)c1 (stereo not drawn) |
| 612 s | Cc1ccc(Cl)cc1NC(=O)N1CCc2nc[nH]c2C1 |
| 580 s | CCCNC(=O)N1CCCCCC1CN1CCCC1 (stereo not drawn) |
| 1050 s | Cc1ccc(-c2nc(-c3ccnc(N4CCOCC4)c3)no2)cc1 |
| 734 s | CCC(=O)N1CCc2cc(N3CC(C(=O)NCc4cc(F)cc(F)c4)CC3=O)ccc21 (stereo not drawn) |
| 679 s | CCCNC(=O)C1CCN(c2ccc(SCC(=O)Nc3ccc(C)c(F)c3)nn2)CC1 |
| 1010 s | Cc1ccc(S(=O)(=O)N2C(=O)CCC2C(=O)NC2CCCCCC2)cc1C (stereo not drawn) |

| RP-LC retention time | SMILES |
| --- | --- |
| 913 s | CCCN1C(=O)c2cc(S(=O)(=O)N3CCCC3)ccc2Oc2cccnc21 |
| 948 s | Cc1ccc(NC(=O)C2CCN(S(=O)(=O)c3ccc4c(c3)CCCC(=O)N4)CC2)cc1 |
| 769 s | CC(C)N1C(=O)c2cccnc2Sc2cc(C(=O)N3CCCCC3)ccc21 |
| 806 s | O=c1n(Cc2ccc(F)cc2)nc2c(S(=O)(=O)N3CCCC3)cccn12 |
| 1150 s | O=C(Nc1ccc(Cl)cc1)N1CCN(c2nc3ccccc3nc2C(F)(F)F)CC1 |
| 674 s | COC(=O)c1ccc(NC(=O)N2CCC3(CC2)N(CC2CC2)C(=O)CS3=O)cc1 (stereo not drawn) |
| 668 s | Cn1ccc2cc(S(=O)(=O)N3CCCC(C(=O)NCCN4CCCCCC4)C3)ccc21 (stereo not drawn) |
| 602 s | NC(=O)C1CCN(C(=O)CCCc2nc3cccnc3n2Cc2ccc(F)cc2)CC1 |
| 772 s | Cc1cccc(CNC(=O)C2(C)Cn3cnc(C(=O)NCc4ccccc4F)c3C(=O)N2C2CC2)c1 (stereo not drawn) |
| 886 s | O=S(=O)(c1cc(F)ccc1F)N1CCN(Cc2cccc(F)c2)C2(CCOCC2)C1 |
| 610 s | CNC(=O)CN1CCC(Oc2cc3c(Nc4cccc(Cl)c4F)ncnc3cc2OC)CC1 |
| 658 s | Cc1scc2nc(C(=O)Nc3ccccc3)nc(N(C)C)c12 |
| 702 s | O=C(Cn1nc2ccc(C(=O)NCc3ccccc3)cn2c1=O)NC1CCCC1 |
| 814 s | CCn1cc(C)c(C(=O)O)c1CC(=O)NC1CCCCCC1 |
| 685 s | Cc1cccc(CNC(=O)Cn2c(=O)c3nnc(C)n3c3ncccc32)c1 |
| 675 s | CCc1ccc(NC(=O)C2CCN(c3cncnc3N3CCOCC3)CC2)cc1 |
| 975 s | Cc1[nH]nc(-c2c(C)sc(C)c2S(=O)(=O)N2CCc3ccccc3C2)c1C |
| 610 s | COc1cccc(NC(=O)CN2CCc3[nH]c4c(OC)ccc(Cl)c4c(=O)c3C2)c1 |
| 684 s | O=C(NC1CC1)[C@@H]1C[C@H](Oc2ccccc2)CN1C(=O)C1CC1 |
| 845 s | O=C(NC1CCCCCC1)C1CCN(Cc2cc3ccccc3n2Cc2ccccc2)CC1 |
| 927 s | COC(=O)c1ccc(CSc2nnc(N3CCN(c4ccc(F)cc4)CC3)s2)o1 |
| 696 s | COCCCNC(=O)CN1C(=O)C2CCCCN2c2ccc(C(=O)N3CCCC3)cc21 (stereo not drawn) |

| RP-LC retention time | SMILES |
| --- | --- |
| 816 s | Cc1cc(C)n(Cc2nc(-c3ccc(NC(=O)C(C)C)cc3)oc2C)n1 |
| 585 s | Cc1ccsc1CN1CCCC1c1nnc2n1CCN(C(=O)C(C)C)CC2 (stereo not drawn) |
| 710 s | Cc1ccc(C)c(N2CCN(C(=O)c3cc(-c4ccncc4)cn3C)CC2)c1 |
| 1050 s | Cn1nccc1-c1cccc(-c2noc(-c3ccnc(Cl)c3)n2)c1 |
| 1320 s | Cc1ccc(-c2nc(Nc3cccc(Cl)c3)sc2C)cc1 |
| 805 s | O=C(C1CCN(S(=O)(=O)c2ccc(-c3noc(C4CC4)n3)cc2)CC1)N1CCOCC1 |
| 599 s | O=C(CN1CCN(Cc2cccc(Cl)c2)C1=O)NCc1ccncc1 |
| 798 s | CC1CC(=O)c2cnc(N3CCN(c4ncccn4)CC3)nc2C1 (stereo not drawn) |
| 633 s | O=C(Cn1c(=O)c(=O)n(Cc2ccncc2)c2ncccc21)NCCc1ccc(Cl)cc1 |
| 631 s | Cc1c(C(=O)NCCCN2CCCCC2)oc2ccc3c(c12)C(O)CC(C)(C)O3 (stereo not drawn) |
| 551 s | CCCCN1CCN(C(=O)c2cc(NC(=O)C3CCC3)cc3nc(C)ccc23)CC1 |
| 895 s | O=C(NCc1ccc(F)cc1F)C1=C2CCCN2c2ccc(F)cc2S1(=O)=O |
| 814 s | O=C(NCc1ccc2c(c1)N(C(=O)c1ccccc1)CC2)c1cccs1 |
| 976 s | O=C(Nc1ccccc1)C1CCCN(S(=O)(=O)Cc2ccccc2Cl)C1 (stereo not drawn) |
| 685 s | Cc1ccc(F)cc1S(=O)(=O)N1CCC2(CCN(c3cccnc3)C2)C1 (stereo not drawn) |
| 964 s | CCc1ccc(Nc2nc(C(=O)NCCC(C)C)nc3ccccc23)cc1 |
| 691 s | CCC(C(=O)NCCCN1CCCCC1)n1nc(C)c2sc3ccccc3c2c1=O (stereo not drawn) |
| 634 s | COc1ccc(S(=O)(=O)Nc2cccc(-c3cn4cccc(C)c4n3)c2)cc1OC |
| 599 s | O=C(Cc1cccs1)N1CC(c2noc(C3CCCN3CC3CC3)n2)C1 (stereo not drawn) |
| 639 s | CC(C)n1c(CCNC(=O)c2ccc(C#N)cc2)nc2cccnc21 |
| 664 s | O=S(=O)(c1cccc2cccnc12)N1CC[C@@H]2COCCN(Cc3ccccc3)[C@@H]2C1 |

| SMILES | RP-LC retention time |
| --- | --- |
| COc1ncccc1CNC(=O)c1nn(C)c2ccccc12 | 798 s |
